In paper PMC3785238 (Cell, 2013):
Non-standard residues stand in square brackets, D forms with d. No end group written: not given here. pS = N[C@@H](COP(=O)(O)O)C(=O)O

Assays:
GST-Pin1 = type: binding; settings: mGluR5 expressed in HEK293 cells
mGluR5-SIC [1] = type: cell-based, mouse; settings: Homer1−/−Homer2−/−Homer3−/− neurons; for effect of Pin1 peptide on BDNF potentiation of mGluR5-SIC: 0.5 μM in the pipette, n = 5
[2] = system: corticostriatal synapse depotentiation; assay: Field potential recording: depotentiation of corticostriatal LTP; set-up: species or system mouse; settings: SKF38393 3 μM
mGluR5-SIC [3] = assay: Whole-cell voltage clamp: SKF38393; type: cell-based, mouse
Homer1a [4] = molecular target: T1, Homer1a (Rattus norvegicus, UniProt Q9Z214); assay: Homer1a induction in cultured striatal neurons; type: cell-based; settings: 30 min, 50 mM KCl
T1 sequence (Q9Z214 1-186 isoform Q9Z214-3): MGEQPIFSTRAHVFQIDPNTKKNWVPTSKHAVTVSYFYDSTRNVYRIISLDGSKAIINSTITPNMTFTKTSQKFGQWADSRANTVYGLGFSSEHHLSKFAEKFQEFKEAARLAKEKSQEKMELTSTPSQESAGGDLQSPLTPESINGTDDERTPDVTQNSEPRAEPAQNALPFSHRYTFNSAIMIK

NMDA receptors = assay: Whole-cell voltage clamp: mGluR5-SIC, NMDA receptor dependence; type: cell-based
Homer1a [5] = molecular target: T1, Homer1a; assay: ITC of mGluR5 peptide into full length Homer1a; type: binding; settings: versus unphosphorylated peptide
Pin1 = Pin1 (Homo sapiens, UniProt Q13526); assay: 15N ZZ-exchange NMR: Pin1-catalyzed cis/trans isomerization of mGluR5 peptide; type: biochemical; settings: Homer1a equimolar to peptide; Pin1 sub-stoichiometric (1:10)
Sequence of Pin1 (Q13526 whole entry, species assumed): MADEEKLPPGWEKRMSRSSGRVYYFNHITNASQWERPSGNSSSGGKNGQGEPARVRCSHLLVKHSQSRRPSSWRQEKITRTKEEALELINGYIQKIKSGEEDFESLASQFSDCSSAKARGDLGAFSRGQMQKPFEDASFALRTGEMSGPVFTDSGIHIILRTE

[6] = system: locomotor activity of mice; assay: Cocaine locomotion and motor sensitization; type: in vivo, mouse
Pin1-mGluR5 = assay: Pin1 co-immunoprecipitation with mGluR5 from mouse striatum; type: in vivo
mGluR5 [7] = assay: mGluR5 phosphorylation and Homer1a expression in mouse striatum; type: in vivo
[8] = system: glutamate and dopamine in the nucleus accumbens; assay: In vivo microdialysis: glutamate and dopamine in nucleus accumbens; set-up: species or system mouse
mGluR5 [9] = settings: bath application, 5 μM
[10] = i.p. four times, 10 or 30 mg/kg
[11] = 20 mg/kg, i.p., mice, n = 6 each group
[12] = 10 mg/kg, WT n = 7, Grm5AA/AA n = 9

## mGluR5(T1123A, S1126A): mutant that prevents phosphorylation at both sites
GST-Pin1
  GST-Pin1 binding to full-length mGluR5: did not bind

## WT mGluR5: full-length mGluR5 expressed in HEK293 cells
GST-Pin1
  GST-Pin1 binding to full-length mGluR5: bound

## COC(=O)[C@@]1(O)C[C@H]2O[C@]1(C)n1c3ccccc3c3c4c(c5c6ccccc6n2c5c31)C(=O)NC4 [K252a]
mGluR5-SIC [1]; 100 nM
  block of BDNF potentiation of mGluR5-SIC by TrkB inhibitor: blocked BDNF potentiation

## Oc1cc2c(cc1O)C(c1ccccc1)CNCC2 (stereo not shown) [SKF38393]
[2]; 0.5 hrs before HFS, n = 6 and n = 8
  depotentiation, pretreatment, WT slices: prevented depotentiation
[2]; 0.5 hrs before HFS, n = 10
  depotentiation, pretreatment, Homer1a−/− slices: failed to block depotentiation
[2]; 0.5 hrs before HFS, n = 12
  depotentiation, pretreatment, Grm5AA/AA slices: failed to block depotentiation
[2]; beginning 25 min after HFS, n = 4
  depotentiation, acute, WT slices: did not block depotentiation
[2]; beginning 25 min after HFS, n = 6
  depotentiation, acute, Grm5R/R slices: did block depotentiation
mGluR5-SIC [3]; SKF38393 1 μM after KCl pretreatment, D1-GFP, n = 8, p < 0.001
  mGluR5-SIC potentiation, D1R-GFP neurons: robust and consistent potentiation
mGluR5-SIC [3]; SKF38393 1 μM after KCl pretreatment, D2-GFP, n = 10
  mGluR5-SIC potentiation, D2-GFP neurons: not D2 receptor-expressing neurons
mGluR5-SIC [3]; SKF38393 1 μM, bath, Homer1−/−Homer2−/−Homer3−/− neurons
  mGluR5-SIC potentiation, Homer triple knockout neurons: potentiated
mGluR5-SIC [3]; SKF38393 1 μM, Homer1−/−Homer2−/−Homer3−/− neurons, p < 0.005
  neurons with potentiation of mGluR5-SIC: 6 of 13 neurons

## N#CC(=C(/N)Sc1ccccc1N)/C(C#N)=C(/N)Sc1ccccc1N [UO126]
mGluR5-SIC [1]; 20 μM
  block of BDNF potentiation of mGluR5-SIC by MEK inhibitor: blocked BDNF potentiation

## [Cl-].[K+] [KCl]
Homer1a [4]
  Homer1a induction: induced Homer1a

## C[C@]12N[C@H](Cc3ccccc31)c1ccccc12 [MK-801]
NMDA receptors; in the recording pipette
  block of mGluR-SIC by MK-801: Blockade

## Ac–Phe–Phe–pSer-Ψ[(Z)CH=C]-Pro–Arg–NH2 [Pin1 peptide mimic inhibitor]
mGluR5-SIC [1]
  effect of Pin1 peptide on BDNF potentiation of mGluR5-SIC: blocked

## Ac-FY[pS]PR-NH2 [Pin1 control peptide mimic]
mGluR5-SIC [1]
  effect of Pin1 peptide on BDNF potentiation of mGluR5-SIC: not by Pin1 control peptide mimic

## O=C(O)[C@@H]1[C@H](C(=O)O)NCCN1C(=O)c1ccc2c(ccc3ccccc32)c1 [PPDA]
NMDA receptors; 0.2 μM
  block of mGluR5-SIC by PPDA: blocked

## mGluR5-pS: mGluR5 peptide phosphorylated at S^1126 in vitro (KELVALTPP[pS]PFRD)
Homer1a [5]
  increase in Homer1a affinity on S1126 phosphorylation: > 10 fold
Pin1
  Pin1 catalysis of pS1126-P bond in the presence of equimolar Homer1a: Pin1 was able to catalyze isomerization of pS^1126-P bond

## mGluR5(T1123A): mutant that prevents phosphorylation at T1123
GST-Pin1
  GST-Pin1 binding to full-length mGluR5: bound

## COC(=O)[C@H]1[C@@H](OC(=O)c2ccccc2)C[C@@H]2CC[C@H]1N2C [cocaine]
[6]; acute, i.p., 10 or 30 mg/kg
  acute locomotor response, Grm5AA/AA mice: increased locomotor response to acute cocaine
  acute locomotor response, Grm5TS/AAPin1+/− double heterozygotes: WT-levels of activity in response to acute cocaine
[6]; [10]
  motor sensitization, Grm5AA/AA mice: markedly reduced sensitization
  motor sensitization, Grm5TS/AAPin1+/− double heterozygotes: reduced motor sensitization
  motor sensitization, Homer1a−/− mice: profound deficit of cocaine motor sensitization
[6]; initial dose, i.p. 10 or 30 mg/kg
  acute locomotor response, Homer1a−/− mice: WT-like response to the initial dose of cocaine
Pin1-mGluR5; 10 mg/kg, i.p., 30 min, Homer1−/−Homer2−/−Homer3−/− mice
  Pin1 co-immunoprecipitation with mGluR5, Homer triple knockout: increases after cocaine administration
Pin1-mGluR5; acute cocaine, WT mice
  increase of Pin1 binding, WT mice: did not detect an increase of Pin1 binding in WT mice
mGluR5 [7]; 10 mg/kg, i.p., 30 min, WT n = 6, Homer1−/−Homer2−/−Homer3−/− n = 7, versus saline
  mGluR5 phosphorylation, WT and Homer triple knockout: increased mGluR5 phosphorylation
mGluR5 [7]; [11]
  Homer1a expression in striatum: induces Homer1a expression
  mGluR5 Ser-1126 phosphorylation in striatum: induces transient phosphorylation
  mGluR5 Thr-1123 phosphorylation in striatum: not Thr-1123
mGluR5 [7]; cocaine administration, immunoselection of pT1123
  double phosphorylation of mGluR5: Double phosphorylation is induced
[8]; [12]
  dopamine response, Grm5AA/AA mice, 1st injection: modest reduction
  glutamate response, Grm5AA/AA mice, 1st injection: normal glutamate response
[8]; 10 mg/kg, WT n = 7, Grm5AA/AA n = 9, P < 0.05
  glutamate and dopamine response, Grm5AA/AA mice, 4th injection: blunted neurotransmitter responsiveness
[8]; 30 mg/kg, n = 8 each group
  glutamate and dopamine response, Homer1a−/− mice, 1st injection: normal glutamate and dopamine responses
[8]; 30 mg/kg, n = 8 each group, P < 0.05
  glutamate and dopamine response, Homer1a−/− mice, 4th injection: blunted neurotransmitter responsiveness

## Cc1cccc(C#Cc2ccccc2)n1 [MPEP, 2-Methyl-6-(phenylethynyl)pyridine]
mGluR5 [9]
  block of mGluR5-SIC by MPEP: blocked

## N[C@@H](CCCP(=O)(O)O)C(=O)O [APV]
NMDA receptors; 50 μM
  block of mGluR5-SIC by APV: blocked

## CC(C(O)c1ccc(O)cc1)N1CCC(Cc2ccccc2)CC1 (stereo not shown) [ifenprodil]
NMDA receptors
  block of mGluR5-SIC by ifenprodil: blocked

## mGluR5(S1126A): mutant that prevents phosphorylation at S1126
GST-Pin1
  GST-Pin1 binding to full-length mGluR5: bound
